Measurements from US20170107257A1, “CYCLIC APELIN ANALOGS” (LANTHIOPEP B.V., priority 2014, published 2017).
pEC50: −log10 of the molar value. Numbered stars: 1 amine (or outer) side, 2 acyl side, 3 side chain; on linkers, the order of the positions; unused ones are H or OH. Bridge positions count the residues as written; N and C are the ends. Square brackets hold non-standard residues; d marks the D form. Ends that are not written are not given here. Peptide text beside a SMILES is read from it. ξ: configuration not given here. ξAbu(3ξ-yl) = CC(C(N[*:1])C(=O)[*:2])[*:3]; pGlu = O=C1CC[C@@H](C(=O)O)N1; X1 = CC=C(N[*:1])C(=O)[*:2]; ξC = NC(CS)C(=O)O

Assays:
hAPJ [1] = target: T1, hAPJ (Homo sapiens, UniProt P35414); experiment: beta arrestin assay (DiscoverX); type: cell-based; conditions: for Ratio β-arrestin/cAMP: ratio of β-arrestin EC50 to cAMP EC50; for pEC50: read-out: β-arrestin EC50
T1 sequence (P35414 1-380): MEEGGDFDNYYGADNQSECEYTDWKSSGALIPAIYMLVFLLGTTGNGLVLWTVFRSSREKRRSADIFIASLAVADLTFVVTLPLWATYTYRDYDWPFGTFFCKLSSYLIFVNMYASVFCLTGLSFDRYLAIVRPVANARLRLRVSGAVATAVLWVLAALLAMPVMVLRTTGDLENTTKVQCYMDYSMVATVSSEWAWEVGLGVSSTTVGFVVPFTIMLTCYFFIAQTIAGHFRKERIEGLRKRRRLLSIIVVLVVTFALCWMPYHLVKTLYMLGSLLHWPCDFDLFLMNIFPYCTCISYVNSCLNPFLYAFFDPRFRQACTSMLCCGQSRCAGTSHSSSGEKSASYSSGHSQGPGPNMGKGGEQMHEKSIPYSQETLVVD
Protocol: (§1) (Me)lan apelin variants were tested with cAMP and beta arrestin assays from the company DiscoverX.

[2] = Stability of apelin analogs in rat plasma; type: in vitro ADME; conditions: rat, plasma; for half-life at 0.1 mg/ml: pH 7.4
Protocol: Stability of apelin analogs in rat plasma. […] Samples were quenched by acidifying to final concentration of 5% TFA. Samples were analyzed on HPLC. Peak heights were plotted as relative to the initial peak heights.

hAPJ [3] = target: T1, hAPJ; experiment: cAMP assay (DiscoverX); type: cell-based
Protocol: as §1

hAPJ [4] = target: T1, hAPJ; experiment: hAPJ receptor internalization assay (APJ-GFP translocation, HEK293); type: cell-based; parameters: expressed in transfected cells; host or cells: HEK293, adenoviral transduction (Ad-GFP-hAPJ); conditions: 500 nM max, read-out: Relative EC50 (nM), hAPJ internalisation
Protocol: HEK293 cells are seeded 24 hours prior to experiment at 50% confluence in 2×F75 flasks. The next morning, cells are trypsinized, vortexed for 60 seconds and passed through a 40 micron mesh filter. Cells are resuspended at a density of 300,000 cells/ml in OptiMEM+2% FBS, and Ad-GFP-hAPJ virus is added at an MOI of 1 PFU/cell. Cells are vortexed and dispensed into 96 well clear bottom, black dishes at a concentration of 10,000 cells/well. Cells are maintained at room temperature for 30 minutes to allow cell attachment to the dish prior to Incubation overnight at 37° C. in a 5% CO2 incubator. Next morning, apelin analogs are added in a concentration response curve (500 nM max). APJ-GFP translocation is observed and documented on Olympus FV con-focal microscope.

For `CC(C)C[C@H](NC(=O)[C@H](CCCNC(=N)N)NC(=O)[C@@H]1CCCN1C(=O)[C@H](CCCNC(=N)N)NC(=O)[C@@H]1CCC(=O)N1)C(=O)NC1CSCC(C(=O)N2CCC[C@H]2C(=O)N[C@@H](Cc2ccccc2)C(=O)O)NC(=O)[C@@H]2CCCN2C(=O)CNC(=O)[C@H](CCCCN)NC(=O)[C@H](Cc2c[nH]cn2)NC1=O` (single isomer, unassigned) [pEApeM9S II, pERPRLLanHKGPLanPF], the “Ratio β-arrestin/cAMP” value (hAPJ [1]) was 200.
In the case of `CSCC[C@@H]1NC(=O)[C@@H]2CCCN2C(=O)CNC(=O)[C@H](CCCCN)NC(=O)[C@H](Cc2c[nH]cn2)NC(=O)C(NC(=O)[C@H](CC(C)C)NC(=O)[C@H](CCCNC(=N)N)NC(=O)[C@@H]2CCCN2C(=O)[C@H](CCCNC(=N)N)NC(=O)[C@@H]2CCC(=O)N2)CSCC(C(=O)N2CCC[C@H]2C(=O)N[C@@H](Cc2ccccc2)C(=O)O)NC1=O` (single isomer, unassigned) [pEApeM27S I, pERPRLLanHKGPMLanPF], the half-life at 0.1 mg/ml [2] was > 24 h and the “Ratio β-arrestin/cAMP” value (hAPJ [1]) was 50.
In the case of `CSCC[C@@H]1NC(=O)[C@@H]2CCCN2C(=O)CNC(=O)C(NC(=O)[C@H](Cc2c[nH]cn2)NC(=O)[C@H](C)NC(=O)[C@H](CC(C)C)NC(=O)[C@H](CCCNC(=N)N)NC(=O)[C@@H]2CCCN2C(=O)[C@H](CCCNC(=N)N)NC(=O)[C@@H](N)CCC(N)=O)CSCC(C(=O)N[C@@H](Cc2ccccc2)C(=O)O)NC1=O` (some centres unmarked) [ApeT8cS], the “activity in Example 8” value (hAPJ [3]) was “significant activity”.
For `CSCC[C@H](NC(=O)[C@@H]1CCCN1C(=O)CNC(=O)C1CSC(C)C(NC(=O)[C@H](CC(C)C)NC(=O)[C@H](CCCNC(=N)N)NC(=O)[C@@H]2CCCN2C(=O)[C@H](CCCNC(=N)N)NC(=O)[C@@H]2CCC(=O)N2)C(=O)N[C@@H](Cc2c[nH]cn2)C(=O)N[C@@H](CCCCN)C(=O)N1)C(=O)N1CCC[C@H]1C(=O)N[C@@H](Cc1ccccc1)C(N)=O` (some centres unmarked) [amidated pEApeM6, pERPRLmeLanHKmeLanGPMPF-NH2] ([pGlu]RPRL[ξAbu(3ξ-yl)]HK[ξC]GPMPF-NH2; thioether 6-9), the “Ratio β-arrestin/cAMP” value (hAPJ [1]) was 0.75, the pEC50 (hAPJ [1]) was 7.22 and the pEC50 (hAPJ [3]) was 7.10.
In the case of `CSCC[C@H](NC(=O)[C@@H]1CCCN1C(=O)CNC(=O)[C@H](CCCCN)NC(=O)C1CSC(C)C(NC(=O)[C@@H]2CCCN2C(=O)[C@H](CCCNC(=N)N)NC(=O)[C@@H]2CCC(=O)N2)C(=O)N[C@@H](CCCNC(=N)N)C(=O)N[C@@H](CC(C)C)C(=O)N[C@@H](C)C(=O)N1)C(=O)N1CCC[C@H]1C(=O)N[C@@H](Cc1ccccc1)C(=O)O` (some centres unmarked) [pEApeI3c, pERPmeLanRLAmeLanKGPMPF] ([pGlu]RP[ξAbu(3ξ-yl)]RLA[ξC]KGPMPF-OH; thioether 4-8; C-terminus assumed), the half-life at 0.1 mg/ml [2] was 2 h, the “Ratio β-arrestin/cAMP” value (hAPJ [1]) was 167 and the pEC50 (hAPJ [1]) was 5.55. For the same molecule, the pEC50 (hAPJ [3]) was 7.77.
With `CSCC[C@H](NC(=O)[C@@H]1CCCN1C(=O)CNC(=O)[C@H](CCCCN)NC(=O)C1CSC(C)C(NC(=O)[C@H](CCCNC(=N)N)NC(=O)[C@@H]2CCCN2C(=O)[C@H](CCCNC(=N)N)NC(=O)[C@@H]2CCC(=O)N2)C(=O)N[C@@H](CC(C)C)C(=O)N[C@@H](C)C(=O)N1)C(=O)N1CCC[C@H]1C(=O)N[C@@H](Cc1ccccc1)C(=O)O` (some centres unmarked) [pEApeI4a, pERPRmeLanLAmeLanKGPMPF] ([pGlu]RPR[ξAbu(3ξ-yl)]LA[ξC]KGPMPF-OH; thioether 5-8; C-terminus assumed) the half-life at 0.1 mg/ml [2] was 2 h, the “Ratio β-arrestin/cAMP” value (hAPJ [1]) was 87 and the pEC50 (hAPJ [1]) was 5.95. The pEC50 (hAPJ [3]) was 7.89.
`CSCC[C@H](NC(=O)[C@@H]1CCCN1C(=O)[C@@H]1CSCC(NC(=O)[C@H](CC(C)C)NC(=O)[C@H](CCCNC(=N)N)NC(=O)[C@@H]2CCCN2C(=O)[C@H](CCCNC(=N)N)NC(=O)[C@@H]2CCC(=O)N2)C(=O)N[C@@H](C)C(=O)N[C@@H](Cc2c[nH]cn2)C(=O)N[C@@H](CCCCN)C(=O)N1)C(=O)N1CCC[C@H]1C(=O)N[C@@H](Cc1ccccc1)C(=O)O` (some centres unmarked) [pEApeI5cS I, pERPRLLanAHKLanPMPF] showed a half-life at 0.1 mg/ml [2] of 3 h.
With `CC=C(NC(=O)[C@H](CCSC)NC(=O)[C@@H]1CCCN1C(=O)C1CSC(C)C(NC(=O)[C@H](CC(C)C)NC(=O)[C@H](CCCNC(=N)N)NC(=O)[C@@H]2CCCN2C(=O)[C@H](CCCNC(=N)N)NC(=O)[C@@H]2CCC(=O)N2)C(=O)N[C@@H](Cc2c[nH]cn2)C(=O)N[C@@H](CCCCN)C(=O)N1)C(=O)N[C@@H](Cc1ccccc1)C(=O)O` (some centres unmarked) [pEApeM5T, pERPRLmeLanHKmeLanPMDhbF] ([pGlu]RPRL[ξAbu(3ξ-yl)]HK[ξC]PM[X1]F-OH; thioether 6-9; C-terminus assumed) the “stability in rat plasma” value [2] was “enhanced stability”, the half-life at 0.1 mg/ml [2] was 24 h and the “Ratio β-arrestin/cAMP” value (hAPJ [1]) was 0.16. It also gave a pEC50 (hAPJ [1]) of 7.49 and a pEC50 (hAPJ [3]) of 6.72.
With `CSCC[C@H](NC(=O)[C@@H]1CCCN1C(=O)CNC(=O)[C@@H]1CSC(C)C(NC(=O)[C@H](CC(C)C)NC(=O)[C@H](CCCNC(=N)N)NC(=O)[C@@H]2CCCN2C(=O)[C@H](CCCNC(=N)N)NC(=O)[C@@H]2CCC(=O)N2)C(=O)N[C@@H](Cc2c[nH]cn2)C(=O)N[C@@H](CCCCN)C(=O)N1)C(=O)N1CCC[C@H]1C(=O)N[C@@H](Cc1ccccc1)C(=O)O` (some centres unmarked) [pEApeM6, pERPRLmeLanHKmeLanGPMPF] ([pGlu]RPRL[ξAbu(3ξ-yl)]HKCGPMPF-OH; thioether 6-9) the half-life at 0.1 mg/ml [2] was 8 h.
For `CSCC[C@H](NC(=O)[C@@H]1CCCN1C(=O)CNC(=O)C1CSC(C)C(NC(=O)[C@H](CC(C)C)NC(=O)[C@H](CCCNC(=N)N)NC(=O)[C@@H]2CCCN2C(=O)[C@H](CCCNC(=N)N)NC(=O)[C@@H]2CCC(=O)N2)C(=O)N[C@@H](Cc2c[nH]cn2)C(=O)N[C@@H](CCCCN)C(=O)N1)C(=O)N1CCC[C@H]1C(=O)O` (some centres unmarked) [pEApeM6deltaF, pERPRLmeLanHKmeLanGPMP] ([pGlu]RPRL[ξAbu(3ξ-yl)]HK[ξC]GPMP-OH; thioether 6-9; C-terminus assumed), the “Ratio β-arrestin/cAMP” value (hAPJ [1]) was 3, the pEC50 (hAPJ [1]) was 6.41 and the pEC50 (hAPJ [3]) was 6.90. For the same molecule, the EC50 (hAPJ [4]) was > 1000 nM.
Molecule `CSCC[C@H](NC(=O)[C@@H]1CCCN1C(=O)[C@@H]1CSC(C)C(NC(=O)[C@H](CC(C)C)NC(=O)[C@H](CCCNC(=N)N)NC(=O)[C@@H]2CCCN2C(=O)[C@H](CCCNC(=N)N)NC(=O)[C@@H]2CCC(=O)N2)C(=O)N[C@@H](Cc2c[nH]cn2)C(=O)N[C@@H](CCCCN)C(=O)NCC(=O)N1)C(=O)N1CCC[C@H]1C(=O)N[C@@H](Cc1ccccc1)C(=O)O` (some centres unmarked) [pEApeM7, pERPRLmeLanHKGmeLanPMPF] ([pGlu]RPRL[ξAbu(3ξ-yl)]HKGCPMPF-OH; thioether 6-10) has a half-life at 0.1 mg/ml [2] of 15 h.
Molecule `CSCC[C@H](NC(=O)[C@@H]1CSCC(NC(=O)[C@H](CC(C)C)NC(=O)[C@H](CCCNC(=N)N)NC(=O)[C@@H]2CCCN2C(=O)[C@H](CCCNC(=N)N)NC(=O)[C@@H]2CCC(=O)N2)C(=O)N[C@@H](Cc2c[nH]cn2)C(=O)N[C@@H](CCCCN)C(=O)NCC(=O)N2CCC[C@H]2C(=O)N1)C(=O)N1CCC[C@H]1C(=O)N[C@@H](Cc1ccccc1)C(=O)O` (some centres unmarked) [pEApeM12S, pERPRLLanHKGPLanMPF] has a half-life at 0.1 mg/ml [2] of 3 h.
In the case of `CSCC[C@@H]1NC(=O)[C@@H]2CCCN2C(=O)CNC(=O)[C@H](CCCCN)NC(=O)[C@H](Cc2c[nH]cn2)NC(=O)C(NC(=O)[C@H](CC(C)C)NC(=O)[C@H](CCCNC(=N)N)NC(=O)[C@@H]2CCCN2C(=O)[C@H](CCCNC(=N)N)NC(=O)[C@@H]2CCC(=O)N2)CSC[C@@H](C(=O)N[C@@H](Cc2ccccc2)C(=O)O)NC1=O` (some centres unmarked) [pEApeM26S I, pERPRLLanHKGPMLanF], the half-life at 0.1 mg/ml [2] was > 24 h.
For `CSCC[C@@H]1NC(=O)[C@@H]2CCCN2C(=O)CNC(=O)C(NC(=O)[C@H](Cc2c[nH]cn2)NC(=O)[C@H](C)NC(=O)[C@H](CC(C)C)NC(=O)[C@H](CCCNC(=N)N)NC(=O)[C@@H]2CCCN2C(=O)[C@H](CCCNC(=N)N)NC(=O)[C@@H]2CCC(=O)N2)CSCC(C(=O)N[C@@H](Cc2ccccc2)C(=O)O)NC1=O` (some centres unmarked) [pEApeT8cS], the half-life at 0.1 mg/ml [2] was 8 h, the “Ratio β-arrestin/cAMP” value (hAPJ [1]) was 122 and the pEC50 (hAPJ [1]) was 6.61. The pEC50 (hAPJ [3]) was 8.70.
In the case of `CSCC[C@H](NC(=O)[C@@H]1CCCN1C(=O)CNC(=O)[C@@H]1CSC(C)C(NC(=O)[C@H](CC(C)C)NC(=O)[C@H](CCCNC(=N)N)NC(=O)[C@@H]2CCCN2C(=O)[C@H](CCCNC(=N)N)NC(=O)[C@@H]2CCC(=O)N2)C(=O)N[C@@H](Cc2c[nH]cn2)C(=O)N[C@@H](CCCCN)C(=O)N1)C(=O)N1CCC[C@H]1C(=O)N[C@@H](C)C(=O)O` (some centres unmarked) [pERPRLmeLanHKmeLanGPMPA] ([pGlu]RPRL[ξAbu(3ξ-yl)]HKCGPMPA-OH; thioether 6-9), the half-life at 0.1 mg/ml [2] was 7 h.
Molecule `CSCC[C@H](NC(=O)[C@@H]1CCCN1C(=O)CNC(=O)[C@@H]1CSC(C)C(NC(=O)[C@H](CC(C)C)NC(=O)[C@H](CCCNC(=N)N)NC(=O)[C@@H]2CCCN2C(=O)[C@H](CCCNC(=N)N)NC(=O)[C@@H]2CCC(=O)N2)C(=O)N[C@@H](Cc2c[nH]cn2)C(=O)N[C@@H](CCCCN)C(=O)N1)C(=O)N[C@H](C(=O)N[C@@H](Cc1ccccc1)C(=O)O)C(C)C` (some centres unmarked) [pERPRLmeLanHKmeLanGPMVF] ([pGlu]RPRL[ξAbu(3ξ-yl)]HKCGPMVF-OH; thioether 6-9) has a half-life at 0.1 mg/ml [2] of 10 h.
With QRPRLAHKGPMPF [reference compound] the “Ratio β-arrestin/cAMP” value (hAPJ [1]) was 20, the pEC50 (hAPJ [1]) was 7.92 and the pEC50 (hAPJ [3]) was 9.22.
